Test results published in patent US20220205982A1 (CHILDREN'S HOSPITAL MEDICAL CENTER, priority 2019, published 2022).
Where two headings read alike, the source gives them in different places.

Assay: PK of melphalan in plasma by ESI-LC-MS/MS in patients undergoing HSCT
Format: in vivo
Settings: human, intravenous
Experimental: Patients undergoing HSCT were administered by intravenous infusion a low dose of melphalan (referred to as the ‘test’ dose) to first determine each patient's individualized pharmacokinetics of the drug. After that the personalized optimal full dose was calculated from these measurements and then administered. The test dose equated to 10% of the expected standard full dose for each patient. Blood samples for pharmacokinetic measurement were collected after the test dose and again after the full standard dose of melphalan. Samples were collected at baseline, 5-10 mins before drug infusion, and then 5 min, 15 min, 30 min, 45 min, 1 h, 2h, 2.5h, 4h, and 6h post-infusion. The blood samples were collected on ice and immediately transferred to the lab for PS-MS/MS analysis after collection to minimize drug degradation. Plasma samples from the same blood draw were also obtained after centrifugation at 3000 rpm for 15 min and stored at −80° C. degree until analyzed by both PS-MS/MS and LC-ESI-MS/MS.
Each patient's pharmacokinetic profile was determined using WinNonlin v6.4 (Pharsight, Mountain View, Calif.). […]
The PS-MS\MS method was validated in accordance with the FDA guidance for Bioanalytical Method Validation (fda.gov/downloads/Drugs/Guidance/ucm070107.pdf, May 2011), and Bansa S, et al., AAPS J., 2007, 9, 109-114. Specifically, three analytical runs were processed and analyzed to assess sensitivity, reproducibility, accuracy and precision. […] The assay accuracy was evaluated by comparing results obtained by PS-MS/MS to those obtained by a validated in-house LC-MS/MS melphalan assay for the same samples, wherein melphalan samples were measured by liquid chromatography-tandem mass spectrometry (LC-MS/MS) with selected-reaction monitoring and with the use of stable isotopic-labeled [2H8]-melphalan as the internal standard. Samples were analyzed with the LC20AD HPLC system (Shimadzu) coupled to the TSQ Quantum Ultra Triple Quadrupole Mass Spectrometer (Thermo Scientific). […]

N[C@@H](Cc1ccc(N(CCCl)CCCl)cc1)C(=O)O [melphalan, 4-[Bis(2-chloroethyl)amino]-L-phenylalanine]
AUC (10 % of the expected standard full dose, lower test doses, ESI-LC-MS/MS, n=4, read-out: calculated mean AUC): 430 ± 210 ng·h/mL
AUC (Full Dose, individual patients and mean row, read-out: ESI-LC-MS/MS Plasma AUC): 3900 ng·h/mL
AUC (full dose, ESI-LC-MS/MS method, n=5, read-out: calculated mean AUC): 4300 ± 1000 ng·h/mL
